target: hENPP2 (UniProtKB/SwissProt Q13822) (Homo sapiens (Human), UniProt Q13822); experiment: hENPP2 biochemical assay, LPC as substrate; conditions: LPC (palmitoyl 16:0) as substrate
Experimental: The principle of the assay consists in quantifying the released choline with an enzymatic method using choline oxidase and peroxidase. Choline oxydation by choline oxydase releases betaine and peroxide. The latter is quantified in presence of HRP that converts the peroxide detection agent TOOS and 4-aminoantipyrine into quinoneimine dye. The appearance of quinoneimine dye is measured spectrophotometrically at 555 nm and is proportional to the amount of choline released by ENPP2. Inhibition of ENPP2 will result in a decrease of the signal.
Compound IC50 values are determined in a hENPP2 (UniProtKB/SwissProt Sequence ref Q13822) biochemical assay using LPC as substrate.
The enzyme is diluted in 50 mM Tris-HCl pH 8.5, 500 mM NaCl, 5 mM KCl, 10 mM CaCl2, 0.1% fatty acid free BSA in a total volume of 10 μL. the reaction is started by the addition of 10 μL of 150 μM LPC (palmitoyl 16:0) diluted in the same buffer as described above and the mixture is incubated at 37° C. for 30 min. The reaction is terminated and choline quantified by the addition of a 25 μL of a mixture containing 0.6 U/mL of choline oxidase, 0.6 U/mL of peroxydase, 1.8 mM TOOS, 1.2 mM amino-antipyrine, 20 mM EGTA (stop-developer solution) diluted in the buffer described above. […] is read on the Envision after an incubation of 30 min at room temperature (Excitation 555 nm, excitation light=70%).

| Structure (SMILES) | IC50 [nM] |
| --- | --- |
| CCc1nc2ccc(C3CCN(C(=O)CN(C)C)CC3)cn2c1N(C)c1nc(-c2ccc(F)cc2)cs1 [Compound 129, 2-(dimethylamino)-1-(4-(2-ethyl-3-((4-(4-fluorophenyl)thiazol-2-yl)(methyl)amino)imidazo[1,2-a]pyridin-6-yl)piperidin-1-yl)ethanone] | 100 to 500 |
| CCc1nc2ccc(C3CCN(C(=O)CCN(C)C)CC3)cn2c1N(C)c1nc(-c2ccc(F)cc2)cs1 [Compound 130, 3-(dimethylamino)-1-(4-(2-ethyl-3-((4-(4-fluorophenyl)thiazol-2-yl)(methyl)amino)imidazo[1,2-a]pyridin-6-yl)piperidin-1-yl)propan-1-one] | 100 to 500 |
| CCc1nc2ccc(C3CCN(C(=O)CN4CC(F)(F)C4)CC3)cn2c1N(C)c1nc(-c2ccc(F)cc2)cs1 [Compound 131] | 100 to 500 |
| CCc1nc2ccc(C3CCN(C(=O)CCNC)CC3)cn2c1N(C)c1nc(-c2ccc(F)cc2)cs1 [Compound 132, 1-(4-(2-ethyl-3-((4-(4-fluorophenyl)thiazol-2-yl)(methyl)amino)imidazo[1,2-a]pyridin-6-yl)piperidin-1-yl)-3-(methylamino)propan-1-one] | > 1000 |
| CCc1nc2ccc(N3CCN(CC(=O)N4CC(CO)C4)CC3)cn2c1N(C)c1nc(-c2ccc(F)cc2)c(C#N)s1 [Compound 139, 2-((2-ethyl-6-(4-(2-(3-(hydroxymethyl)azetidin-1-yl)-2-oxoethyl)piperazin-1-yl)imidazo[1,2-a]pyridin-3-yl)(methyl)amino)-4-(4-fluorophenyl) thiazole-5-carbonitrile] | 0.01 to 100 |
| CCc1nc2ccc(N3CCN(CC(=O)N4CC(CO)C4)CC3)cn2c1N(C)c1nc(-c2ccc(F)cc2)c(CO)s1 [Compound 146, 2-(4-(2-ethyl-3-((4-(4-fluorophenyl)-5-(hydroxymethyl)thiazol-2-yl)(methyl)amino)imidazo[1,2-a]pyridin-6-yl)piperazin-1-yl)-1-(3-(hydroxymethyl)azetidin-1-yl)ethanone] | 500 to 1000 |
| CCc1nc2ccc(C3CCN(S(C)(=O)=O)CC3)cn2c1N(C)c1nc(-c2ccc(OC(F)(F)F)cc2)c(CO)s1 [Compound 148, (2-((2-ethyl-6-(1-(methylsulfonyl)piperidin-4-yl)imidazo [1,2-a]pyridin-3-yl)(methyl)amino)-4-(4-(trifluoromethoxy)phenyl)thiazol-5-yl) methanol] | > 1000 |
| CCc1nc2ccc(C3CCN(S(C)(=O)=O)CC3)cn2c1N(C)c1nc(-c2ccc(C(F)(F)F)cc2)c(CO)s1 [Compound 150, (2-((2-ethyl-6-(1-(methylsulfonyl)piperidin-4-yl)imidazo [1,2-a]pyridin-3-yl)(methyl)amino)-4-(4-(trifluoromethyl)phenyl)thiazol-5-yl) methanol] | 500 to 1000 |
| CCc1nc2ccc(C3CCN(CC(=O)N4CCCC4)CC3)cn2c1N(C)c1nc(-c2ccc(F)cc2)c(CO)s1 [Compound 151, 2-(4-(2-ethyl-3-((4-(4-fluorophenyl)-5-(hydroxymethyl)thiazol-2-yl)(methyl)amino)imidazo[1,2-a]pyridin-6-yl)piperidin-1-yl)-1-(pyrrolidin-1-yl)ethanone] | 500 to 1000 |
| CCc1nc2ccc(C3CCN(CC(=O)N4CC(CO)C4)CC3)cn2c1N(C)c1nc(-c2ccc(F)cc2)c(CO)s1 [Compound 152] | 500 to 1000 |
| CCc1nc2ccc(C3CCN(C(=O)CN(C)C)CC3)cn2c1N(C)c1nc(-c2ccc(F)cc2)c(CO)s1 [Compound 153, 2-(dimethylamino)-1-(4-(2-ethyl-3-((4-(4-fluorophenyl)-5-(hydroxymethyl)thiazol-2-yl)(methyl)amino)imidazo[1,2-a]pyridin-6-yl)piperidin-1-yl) ethanone] | 500 to 1000 |
| CCc1nc2ccc(N3CCNCC3)cn2c1N(C)c1nc(-c2ccc(F)cc2C#N)c(C)s1 [Compound 161, 2-(2-((2-ethyl-6-(piperazin-1-yl)imidazo[1,2-a]pyridin-3-yl)(methyl)amino)-5-methylthiazol-4-yl)-5-fluorobenzonitrile] | > 1000 |
| CCc1nc2ccc(N3CCN(CC(=O)NC)CC3)cn2c1N(C)c1nc(-c2ccc(F)cc2C#N)c(C)s1 [Compound 163, 2-(4-(3-((4-(2-cyano-4-fluorophenyl)-5-methylthiazol-2-yl)(methyl)amino)-2-ethylimidazo[1,2-a]pyridin-6-yl)piperazin-1-yl)-N-methylacetamide] | 500 to 1000 |
| CCc1nc2ccc(N3CCN(CC(=O)N4CC(F)C4)CC3)cn2c1N(C)c1nc(-c2ccc(F)cc2C#N)cs1 [Compound 164, 2-(2-((2-ethyl-6-(4-(2-(3-fluoroazetidin-1-yl)-2-oxoethyl)piperazin-1-yl)imidazo[1,2-a]pyridin-3-yl)(methyl)amino)thiazol-4-yl)-5-fluorobenzonitrile] | 0.01 to 100 |
| CCc1nc2ccc(N3CCN(CC(=O)N4CC(F)(F)C4)CC3)cn2c1N(C)c1nc(-c2ccc(F)cc2C#N)cs1 [Compound 165, 2-(2-((6-(4-(2-(3,3-difluoroazetidin-1-yl)-2-oxoethyl)piperazin-1-yl)-2-ethylimidazo[1,2-a]pyridin-3-yl)(methyl)amino)thiazol-4-yl)-5-fluorobenzonitrile] | 100 to 500 |
| CCc1nc2ccc(N3CCN(CC(=O)NC)CC3)cn2c1N(C)c1nc(-c2ccc(F)cc2C#N)cs1 [Compound 169, 2-(4-(3-((4-(2-cyano-4-fluorophenyl)thiazol-2-yl)(methyl)amino)-2-ethylimidazo[1,2-a]pyridin-6-yl)piperazin-1-yl)-N-methylacetamide] | 0.01 to 100 |
| CN(C)C(=O)CN1CCC(c2ccc3nc(CCC(N)=O)c(N(C)c4nc(-c5ccc(F)cc5)cs4)n3c2)CC1 [Compound 176, 3-(6-(1-(2-(dimethylamino)-2-oxoethyl)piperidin-4-yl)-3-((4-(4-fluorophenyl)thiazol-2-yl)(methyl)amino)imidazo[1,2-a]pyridin-2-yl)propanamide] | > 1000 |
| CCc1nc2ccc(N3CC(N)C3)cn2c1N(C)c1nc(-c2ccc(F)cc2)cs1 [Compound 177, [6-(3-Amino-azetidin-1-yl)-2-ethyl-imidazo[1,2-a]pyridin-3-yl]-[4-(4-fluoro-phenyl)-thiazol-2-yl]-methyl-amine] | 500 to 1000 |
| CCc1nc2ccc(N3CC(NCC(=O)N4CC(O)C4)C3)cn2c1N(C)c1nc(-c2ccc(F)cc2)cs1 [Compound 178, 2-(1-(2-ethyl-3-((4-(4-fluorophenyl)thiazol-2-yl)(methyl)amino)imidazo[1,2-a]pyridin-6-yl)azetidin-3-ylamino)-1-(3-hydroxyazetidin-1-yl)ethanone] | 100 to 500 |
| CCc1nc2ccc(C3=CCN(CC(=O)N(C)C)CC3)cn2c1N(C)c1nc(-c2ccc(F)cc2)ns1 [Compound 190, 2-(4-(2-ethyl-3-((3-(4-fluorophenyl)-1,2,4-thiadiazol-5-yl)(methyl)amino)imidazo[1,2-a]pyridin-6-yl)-5,6-dihydropyridin-1(2H)-yl)-N,N-dimethylacetamide] | > 1000 |
| CCc1nc2ccc(C3=CCN(S(C)(=O)=O)CC3)cn2c1N(C)c1nc(-c2ccc(C(F)(F)F)cc2)cs1 [Compound 193, N-(2-ethyl-6-(1-(methylsulfonyl)-1,2,3,6-tetrahydropyridin-4-yl)imidazo[1,2-a]pyridin-3-yl)-N-methyl-4-(4-(trifluoromethyl)phenyl) thiazol-2-amine] | > 1000 |
| CCc1nc2ccc(C3CCN(CC4CN(C)C(=O)O4)CC3)cn2c1N(C)c1nc(-c2ccc(F)cc2)cs1 (centres unmarked) [Compound 195, 5-((4-(2-ethyl-3-((4-(4-fluorophenyl)thiazol-2-yl)(methyl)amino)imidazo[1,2-a]pyridin-6-yl)piperidin-1-yl)methyl)-3-methyloxazolidin-2-one] | > 1000 |
| CCc1nc2ccc(C3CCN(C[C@H]4CNC(=O)O4)CC3)cn2c1N(C)c1nc(-c2ccc(F)cc2)cs1 [Compound 196, (R)-5-((4-(2-ethyl-3-((4-(4-fluorophenyl)thiazol-2-yl)(methyl)amino)imidazo[1,2-a]pyridin-6-yl)piperidin-1-yl)methyl)oxazolidin-2-one] | > 1000 |
| CCc1nc2ccc(C3CCN(C[C@@H]4CNC(=O)O4)CC3)cn2c1N(C)c1nc(-c2ccc(F)cc2)cs1 [Compound 197, (S)-5-((4-(2-ethyl-3-((4-(4-fluorophenyl)thiazol-2-yl)(methyl)amino)imidazo[1,2-a]pyridin-6-yl)piperidin-1-yl)methyl)oxazolidin-2-one] | > 1000 |
| CCc1nc2ccc(C3CCN(CC4COC(=O)N4)CC3)cn2c1N(C)c1nc(-c2ccc(F)cc2)cs1 (centres unmarked) [Compound 198, 4-((4-(2-ethyl-3-((4-(4-fluorophenyl)thiazol-2-yl)(methyl)amino)imidazo[1,2-a]pyridin-6-yl)piperidin-1-yl)methyl)oxazolidin-2-one] | > 1000 |
| CCc1nc2ccc(N3CCN(C(=O)C4(N)CC4)CC3)cn2c1N(C)c1nc(-c2ccc(F)cc2)cs1 [Compound 202, (1-aminocyclopropyl)(4-(2-ethyl-3-((4-(4-fluorophenyl)thiazol-2-yl)(methyl)amino)imidazo[1,2-a]pyridin-6-yl)piperazin-1-yl)methanone] | > 1000 |

From US9670204B2, “Compounds and pharmaceutical compositions thereof for the treatment of inflammatory disorders” (Galapagos NV, priority 2013, dated 2017)
